Measurements from PubChem BioAssay (NCI).
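Five compound concentrations were applied to cells in 96-well plates for 48 hours; endpoints were derived by simple linear interpolation of the resulting dose-response curve. GI50 marks 50% less growth. TGI denotes the concentration required for complete inhibition of growth.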

Columns and labels:
Assay in all cases: growth of human tumour cells (NCI), 48 h
[1] = system: SK-OV-3 ovarian
[2] = system: NCI-H522 lung
[3] = system: DU-145 prostate
[4] = system: NCI/ADR-RES ovarian
[5] = system: SNB-19 CNS
[6] = system: HT29 colon
[7] = system: HOP-92 NSCLC
[8] = system: U251 CNS
[9] = system: MDA-MB-231 breast
[10] = system: UACC-257 melanoma
[11] = system: RPMI-8226 leukemia
[12] = system: SF-539 CNS
[13] = system: HOP-62 NSCLC
[14] = system: A549 NSCLC
[15] = system: RXF 393 renal
[16] = system: SN12C renal
[17] = system: TK-10 renal
[18] = system: ACHN renal
[19] = system: UACC-62 melanoma
[20] = system: MDA-MB-468 breast
[21] = system: KM12 colon
[22] = system: BT-549 breast
[23] = system: OVCAR-4 ovarian
[24] = system: K-562 leukemia
[25] = system: SR leukemia
[26] = system: M14 melanoma
[27] = system: HCC-2998 colon
[28] = system: HCT-15 colon
[29] = system: SK-MEL-28 melanoma
[30] = system: CCRF-CEM leukemia
[31] = system: MOLT-4 leukemia
[32] = system: 786-0 renal
[33] = system: SW-620 colon
[34] = system: NCI-H23 lung
[35] = system: A498 renal
[36] = system: T-47D breast
[37] = system: SK-MEL-2 melanoma
[38] = system: COLO 205 colon
[39] = system: HL-60(TB) leukemia
[40] = system: OVCAR-3 ovarian
[41] = system: HCT-116 colon
[42] = system: SF-295 CNS
[43] = system: SK-MEL-5 melanoma
[44] = system: PC-3 prostate
[45] = system: MALME-3M melanoma
[46] = system: CAKI-1 renal
[47] = system: SF-268 CNS
[48] = system: IGROV1 ovarian
[49] = system: NCI-H460 lung
[50] = system: HS 578T breast
[51] = system: NCI-H226 lung
[52] = system: MDA-MB-435
[53] = system: SNB-75 CNS
[54] = system: OVCAR-5 ovarian
[55] = system: EKVX NSCLC
[56] = system: OVCAR-8 ovarian
[57] = system: UO-31 renal
[58] = system: MCF7 breast
[59] = system: LOX IMVI melanoma

In the case of `Cn1cc(-c2cc(N)n3nc(-c4cn(C)c5ccccc45)cc3n2)c2cc(Cl)ccc21`, the GI50 [1] is reported as 18 µM, the TGI [1] is reported as 48.2 µM and the GI50 [2] is reported as 1.6 µM. The TGI [2] was 3.48 µM, the GI50 [3] was 6.37 µM and the TGI [3] was over 100 µM. It also gave a GI50 [4] of 3.03 µM, a TGI [4] of 9.38 µM and a GI50 [5] of 3.45 µM. For the same molecule, the TGI [5] was 23.8 µM, the GI50 [6] was 1.79 µM and the TGI [6] was 3.51 µM. For the same molecule, the GI50 [7] was 2.23 µM, the TGI [7] was 6.51 µM and the GI50 [8] was 1.86 µM. It also gave a TGI [8] of 3.73 µM, a GI50 [9] of 1.82 µM and a TGI [9] of 3.3 µM. It also gave a GI50 [10] of 2.44 µM, a TGI [10] of 7.17 µM and a GI50 [11] of 3.27 µM. For the same molecule, the TGI [11] was 14.9 µM, the GI50 [12] was 1.85 µM and the TGI [12] was 3.83 µM. For the same molecule, the GI50 [13] was 5.29 µM, the TGI [13] was 26.4 µM and the GI50 [14] was 2.68 µM. For the same molecule, the TGI [14] was 10.7 µM, the GI50 [15] was 1.98 µM and the TGI [15] was 4.01 µM. It also gave a GI50 [16] of 1.77 µM, a TGI [16] of 3.33 µM and a GI50 [17] of 11.7 µM. The TGI [17] was 26.6 µM, the GI50 [18] was 2.05 µM and the TGI [18] was 4.46 µM. The GI50 [19] was 1.64 µM, the TGI [19] was 3.16 µM and the GI50 [20] was 2.2 µM. The TGI [20] was 5.36 µM, the GI50 [21] was 2.15 µM and the TGI [21] was 4.83 µM. For the same molecule, the GI50 [22] was 14.6 µM, the TGI [22] was 33.4 µM and the GI50 [23] was 3.28 µM. It also gave a TGI [23] of 11.3 µM, a GI50 [24] of 2.97 µM and a TGI [24] of 10.6 µM. It also gave a GI50 [25] of 2.03 µM, a TGI [25] of 6.77 µM and a GI50 [26] of 1.95 µM. The TGI [26] was 4.71 µM, the GI50 [27] was 1.78 µM and the TGI [27] was 3.34 µM. It also gave a GI50 [28] of 1.84 µM, a TGI [28] of 3.95 µM and a GI50 [29] of 1.69 µM. For the same molecule, the TGI [29] was 3.08 µM, the GI50 [30] was 3.22 µM and the TGI [30] was 15.3 µM. It also gave a GI50 [31] of 2.58 µM, a TGI [31] of 9.61 µM and a GI50 [32] of 1.74 µM. For the same molecule, the TGI [32] was 3.45 µM, the GI50 [33] was 2.17 µM and the TGI [33] was 4.8 µM. The GI50 [34] was 3.75 µM, the TGI [34] was 20.5 µM and the GI50 [35] was 14.3 µM. It also gave a TGI [35] of 32.3 µM, a GI50 [36] of 10.1 µM and a TGI [36] of 33.3 µM. It also gave a GI50 [37] of 1.84 µM, a TGI [37] of 4.1 µM and a GI50 [38] of 1.97 µM. For the same molecule, the TGI [38] was 3.95 µM, the GI50 [39] was 2.35 µM and the TGI [39] was 5.81 µM. For the same molecule, the GI50 [40] was 11.3 µM, the TGI [40] was 28.1 µM and the GI50 [41] was 1.87 µM. The TGI [41] was 3.87 µM, the GI50 [42] was 1.92 µM and the TGI [42] was 4.26 µM. For the same molecule, the GI50 [43] was 3.5 µM, the TGI [43] was 13 µM and the GI50 [44] was 1.93 µM. For the same molecule, the TGI [44] was 4.91 µM, the GI50 [45] was 1.71 µM and the TGI [45] was 3.22 µM. For the same molecule, the GI50 [46] was 2 µM, the TGI [46] was 5.54 µM and the GI50 [47] was 8.07 µM. The TGI [47] was 32.7 µM, the GI50 [48] was 2.45 µM and the TGI [48] was 8.26 µM. It also gave a GI50 [49] of 2.2 µM, a TGI [49] of 4.96 µM and a GI50 [50] of 3.3 µM. The TGI [50] was 19.4 µM, the GI50 [51] was over 100 µM and the TGI [51] was over 100 µM. It also gave a GI50 [52] of 2.06 µM, a TGI [52] of 4.26 µM and a GI50 [53] of 10.6 µM. It also gave a TGI [53] of 26.6 µM, a GI50 [54] of 5.16 µM and a TGI [54] of 25.5 µM. It also gave a GI50 [55] of 12.6 µM, a TGI [55] of 37.4 µM and a GI50 [56] of 2.09 µM. The TGI [56] was 4.59 µM, the GI50 [57] was 1.63 µM and the TGI [57] was 3.07 µM. The GI50 [58] was 1.77 µM and the TGI [58] was 4.13 µM.
`CN(C)CCOc1ccc(C(=O)C2[C@H](c3ccc(Cl)cc3)[C@@H](c3ccccc3)NC23C(=O)Nc2ccccc23)cc1` (some centres not stated) gave a GI50 [1] of over 18.5 µM, a TGI [1] of over 18.5 µM and a GI50 [2] of 7.52 µM. For the same molecule, the TGI [2] was over 18.5 µM, the GI50 [3] was 5.78 µM and the TGI [3] was over 18.5 µM. For the same molecule, the GI50 [4] was 5.9 µM, the TGI [4] was over 18.5 µM and the GI50 [5] was 8.07 µM. It also gave a TGI [5] of over 18.5 µM, a GI50 [6] of 3.32 µM and a TGI [6] of 7.13 µM. The GI50 [7] was 3.03 µM, the TGI [7] was 12.7 µM and the GI50 [59] was 2.62 µM. For the same molecule, the TGI [59] was 5.02 µM, the GI50 [8] was 3.13 µM and the TGI [8] was 6.07 µM. The GI50 [9] was 3.55 µM, the TGI [9] was 10.2 µM and the GI50 [10] was 3.38 µM. For the same molecule, the TGI [10] was 7.54 µM, the GI50 [11] was 3.95 µM and the TGI [11] was 11.3 µM. For the same molecule, the GI50 [12] was 3.14 µM, the TGI [12] was 6.01 µM and the GI50 [13] was 6.6 µM. For the same molecule, the TGI [13] was over 18.5 µM, the GI50 [14] was 5.95 µM and the TGI [14] was over 18.5 µM. It also gave a GI50 [15] of 2.88 µM, a TGI [15] of 12 µM and a GI50 [16] of 10.6 µM. For the same molecule, the TGI [16] was over 18.5 µM, the GI50 [17] was over 18.5 µM and the TGI [17] was over 18.5 µM. For the same molecule, the GI50 [18] was 4.33 µM, the TGI [18] was 11.7 µM and the GI50 [19] was 2.88 µM. It also gave a TGI [19] of 5.59 µM, a GI50 [20] of 2.91 µM and a TGI [20] of 5.74 µM. The GI50 [21] was 3.56 µM, the TGI [21] was 7.3 µM and the GI50 [22] was over 18.5 µM. It also gave a TGI [22] of over 18.5 µM, a GI50 [23] of 8.79 µM and a TGI [23] of over 18.5 µM. It also gave a GI50 [24] of 3.86 µM, a TGI [24] of 11.7 µM and a GI50 [26] of 2.89 µM. It also gave a TGI [26] of 5.69 µM, a GI50 [27] of 3.07 µM and a TGI [27] of 5.76 µM. The GI50 [28] was 3.68 µM, the TGI [28] was 8.25 µM and the GI50 [29] was 3.05 µM. For the same molecule, the TGI [29] was 5.62 µM, the GI50 [30] was 3.98 µM and the TGI [30] was 13.2 µM. For the same molecule, the GI50 [31] was 3.3 µM, the TGI [31] was 8.62 µM and the GI50 [32] was 3.14 µM. The TGI [32] was 5.83 µM, the GI50 [33] was 3.13 µM and the TGI [33] was 6.05 µM. For the same molecule, the GI50 [34] was 3.95 µM, the TGI [34] was 9.94 µM and the GI50 [35] was over 18.5 µM. The TGI [35] was over 18.5 µM, the GI50 [36] was 9.41 µM and the TGI [36] was over 18.5 µM. The GI50 [37] was 3.6 µM, the TGI [37] was 7.11 µM and the GI50 [38] was 3.58 µM. The TGI [38] was 6.93 µM, the GI50 [39] was 4.11 µM and the TGI [39] was 11.2 µM. For the same molecule, the GI50 [40] was 3.41 µM, the TGI [40] was 7.55 µM and the GI50 [41] was 2.96 µM. It also gave a TGI [41] of 5.51 µM, a GI50 [42] of 3.22 µM and a TGI [42] of 6.52 µM. The GI50 [43] was 3.11 µM, the TGI [43] was 5.99 µM and the GI50 [44] was 3.77 µM. It also gave a TGI [44] of 11.2 µM, a GI50 [45] of 2.92 µM and a TGI [45] of 5.48 µM. The GI50 [46] was 4.5 µM, the TGI [46] was over 18.5 µM and the GI50 [47] was 9.62 µM. It also gave a TGI [47] of over 18.5 µM, a GI50 [48] of 10.4 µM and a TGI [48] of over 18.5 µM. It also gave a GI50 [49] of 3.29 µM, a TGI [49] of 6.17 µM and a GI50 [50] of 3.88 µM. It also gave a TGI [50] of over 18.5 µM, a GI50 [51] of 7.97 µM and a TGI [51] of over 18.5 µM. For the same molecule, the GI50 [52] was 3.04 µM, the TGI [52] was 5.99 µM and the GI50 [53] was 4.58 µM. The TGI [53] was over 18.5 µM, the GI50 [54] was 4.41 µM and the TGI [54] was over 18.5 µM. It also gave a GI50 [55] of 3.03 µM, a TGI [55] of 6.21 µM and a GI50 [56] of 4.56 µM. For the same molecule, the TGI [56] was 11 µM, the GI50 [57] was 6.9 µM and the TGI [57] was over 18.5 µM. The GI50 [58] was 3.18 µM and the TGI [58] was 6.32 µM.
